Results: US6221865A, “Inhibitors of protein isoprenyl transferases” (priority 1998, dated 2001)
Counter-ions that a name gives are not always drawn. Like-named read-outs stand apart in the source and are kept apart here. Blank lines part the entries; values can stand above or below the compound they belong to.

Target: T1, protein farnesyltransferase (Rattus norvegicus, UniProt Q02293+Q04631)
T1 construct: The enzyme is purified according to Reiss, Y., et al., Cell, 62: 81-88 (1990), utilizing steps one through three; from tissue; host or cells: rat brain
Assay: Inhibition of farnesyltransferase (scintillation proximity assay, rat brain enzyme, biotin-K Ras B fragment substrate)
Format: biochemical
Conditions: for % inhibition of farnesyltransferase at 1 × 10^-5 M: 1 × 10^-5 M (Table 1); for % inhibition of farnesyltransferase at 1 × 10^-6 M / inhibition at 1 µM: 1 × 10^-6 M (Table 2); for inhibition at 1 µM: read-out: % inhibition of farnesyltransferase at 1 × 10^-6 M
Procedure, shortened: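 Enzyme from rat brain, partly purified (steps one to three), assayed by SPA kit using 0.1 mM final biotin-K Ras B peptide as prenyl acceptor rather than biotin-lamin. Activity given as percent inhibition.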

[1] = read-out: % inhibition at 0.1 μM (*), Table 6, * = 0.1 μM (footnote), title prints 0.1 mM
[2] = read-out: % inhibition at 0.01 μM (**), Table 6, ** = 0.01 μM (footnote), title prints 0.01 mM

T1 sequence (Q02293 whole entry, one chain of several): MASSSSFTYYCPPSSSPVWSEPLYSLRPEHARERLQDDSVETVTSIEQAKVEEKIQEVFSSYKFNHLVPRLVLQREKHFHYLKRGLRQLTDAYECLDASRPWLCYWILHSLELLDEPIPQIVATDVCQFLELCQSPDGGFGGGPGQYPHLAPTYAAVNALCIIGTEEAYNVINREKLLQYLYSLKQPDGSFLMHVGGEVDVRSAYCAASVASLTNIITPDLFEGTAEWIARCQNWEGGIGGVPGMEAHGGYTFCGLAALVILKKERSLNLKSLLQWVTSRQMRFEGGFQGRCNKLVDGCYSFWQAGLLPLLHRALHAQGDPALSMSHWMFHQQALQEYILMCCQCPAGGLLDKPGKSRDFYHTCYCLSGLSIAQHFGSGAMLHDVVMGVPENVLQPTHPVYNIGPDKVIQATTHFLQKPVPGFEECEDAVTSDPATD

Compound: N-[4-(2-fluoren-4-ylethyl)-2-(2-methylphenyl)benzoyl]methionine lithium salt [Example 464]
- % inhibition of farnesyltransferase at 1 × 10^-7 M (1 × 10^-7 M (Table 3)): 86%

Compound: CSCC[C@H](NC(=O)c1ccc(COCc2cccc(C(C)C)c2)cc1-c1ccccc1C)C(=O)[O-].[Li+] [Example 939]
- % inhibition of farnesyltransferase at 1 × 10^-8 M (1 × 10^-8 M (Table 4)): 72%

- % inhibition of farnesyltransferase at 1 × 10^-8 M (1 × 10^-8 M (Table 4)): 52%
Compound: CCSC[C@H](CC1CCCCC1)N(C=O)Cc1ccc(C(=O)N[C@@H](CCSC)C(=O)O)c(-c2ccccc2C)c1 [Example 946]

- % inhibition of farnesyltransferase at 1 × 10^-5 M: 83%
Compound: CSCC[C@H](NC(=O)c1ccc(CNCCN2CCCCC2)cc1-c1ccccc1)C(=O)O [Example 366]

- % inhibition of farnesyltransferase at 1 × 10^-5 M: 55%
Compound: COc1cc(Cl)ccc1C(=O)Nc1ccc(C(=O)N[C@@H](CCSC)C(=O)O)c(-c2ccccc2)c1 [Example 753]

Compound: CSCC[C@H](NC(=O)c1ccc(COCc2cnc(C(C)(C)C)s2)cc1-c1ccccc1C)C(=O)[O-].[Li+] [Example 895]
- % inhibition of farnesyltransferase at 1 × 10^-7 M (1 × 10^-7 M (Table 3)): 92%

Compound: CSCC[C@H](NC(=O)c1ccc(COCc2ccsc2)cc1-c1ccccc1C)C(=O)[O-].[Li+] [Example 274]
- % inhibition of farnesyltransferase at 1 × 10^-6 M: 94%

- inhibition at 1 µM: 96%
Compound: CSCC[C@H](NC(=O)c1ccc(/C=C/c2cncnc2)cc1-c1ccccc1C)C(=O)O [Example 494, N-[4-(2-pyrimidin-5-ylethen-1-yl)-2-(2-methylphenyl)benzoyl]methionine lithium salt]

- % inhibition of farnesyltransferase at 1 × 10^-8 M (1 × 10^-8 M (Table 4)): 90%
Compound: CSCC[C@H](NC(=O)c1ccc(CN(CCc2ccccc2)c2cncnc2)cc1-c1ccccc1C)C(=O)O [Example 518]

- inhibition at 1 µM: 96%
Compound: CSCC[C@H](NC(=O)c1ccc(CCCC(=O)c2ccc3ccccc3c2)cc1-c1ccccc1C)C(=O)O [Example 473, N-[4-(4-naphth-2-ylbut-4-on-1-yl)-2-(2-methylphenyl)benzoyl]methionine lithium salt]

Compound: CSCC[C@H](NC(=O)c1ccc(COCc2ccccc2C)cc1-c1ccccc1C)C(=O)[O-].[Li+] [Example 577]
- % inhibition of farnesyltransferase at 1 × 10^-6 M: 94%

- % inhibition of farnesyltransferase at 1 × 10^-5 M: 58%
Compound: CSCC[C@H](NC(=O)c1ccc(CNc2cccc(CO)c2)cc1-c1ccccc1)C(=O)O [Example 680]

- % inhibition of farnesyltransferase at 1 × 10^-7 M (1 × 10^-7 M (Table 3)): > 50%
Compound: CSCC[C@H](NC(=O)c1ccc(NC[C@@H]2C[C@H](S)CN2)cc1-c1ccccc1)C(=O)O [Example 959]

- inhibition at 0.1 µM [1]: 94%
Compound: CSCC[C@H](NC(=O)c1ccc(CN2CCC[C@H]2COc2cc(F)cc(F)c2)cc1-c1ccccc1C)C(=O)O [Example 1115, N-[4-(2(S)-(3,5-difluorolphenoxy)methylpyffolidin-1-ylmethyl)-2-(2-methylphenyl)benzoyl]methionine]

- % inhibition of farnesyltransferase at 1 × 10^-8 M (1 × 10^-8 M (Table 4)): 83%
Compound: CSCC[C@H](NC(=O)c1ccc(CO[C@H](CSC(C)(C)C)Cc2ccccc2)cc1-c1ccccc1C)C(=O)O [Example 994]

- inhibition at 1 µM: 71%
Compound: CSCC[C@H](NC(=O)c1ccc(CN2CCN(c3ccccc3)CC2)cc1-c1ccccc1C)C(=O)O [Example 867, N-[4-(4-phenylpiperazin-1-ylmethyl)-2-(2-methylphenyl)benzoyl]methionine]

- inhibition at 1 µM: 87%
Compound: CSCC[C@H](NC(=O)c1ccc(C=CCCCc2ccccc2)cc1-c1ccccc1C)C(=O)O [Example 480, N-[4-(5-phenylpent-1-enyl)-2-(2-methylphenyl)benzoyl]methionine]

- inhibition at 1 µM: 36%
Compound: COc1ccc(CCNS(=O)(=O)c2ccc(C(=O)N[C@@H](CCSC)C(=O)O)c(-c3ccccc3C)c2)cc1OC [Example 776]

- % inhibition of farnesyltransferase at 1 × 10^-5 M: 74%
Compound: CSCC[C@H](NC(=O)c1ccc(CNc2ccc(C3CCCCC3)cc2)cc1-c1ccccc1)C(=O)O [Example 699]

- % inhibition of farnesyltransferase at 1 × 10^-6 M: 35%
Compound: COc1ccccc1CCC(=O)Nc1ccc(C(=O)N[C@@H](CCSC)C(=O)O)c(-c2ccccc2C)c1 [Example 544]

Compound: CSCC[C@H](NC(=O)c1ccc(OCCOC2CCCCC2)cc1-c1ccccc1C)C(=O)[O-].[Li+] [Example 565]
- % inhibition of farnesyltransferase at 1 × 10^-6 M: 94%

- inhibition at 0.01 µM [2]: 91%
Compound: CSCC[C@H](NC(=O)c1ccc(CN2CCN(Cc3ccccc3)CC2)cc1-c1ccccc1C)C(=O)O [Example 1025]

- % inhibition of farnesyltransferase at 1 × 10^-8 M (1 × 10^-8 M (Table 4)): 85%
Compound: CSCC[C@H](NC(=O)c1ccc(CN(Cc2ccccc2)c2cccc(C(C)=O)c2)cc1-c1ccccc1C)C(=O)O [Example 845]

Compound: CSCC[C@H](NC(=O)c1ccc(CSCC2CCCCC2)cc1-c1ccccc1C)C(=O)[O-].[Li+] [Example 559]
- % inhibition of farnesyltransferase at 1 × 10^-7 M (1 × 10^-7 M (Table 3)): 96%

- inhibition at 0.01 µM [2]: 91%
Compound: CSCC[C@H](NC(=O)c1ccc(CN2CCC[C@H]2COC2CCCCC2)cc1-c1ccccc1C)C(=O)O [Example 1116, N-[4-(2(S)-cyclohexyloxymethylpyrrolidin-1-ylmethyl)-2-(2-methylphenyl)benzoyl]methionine]

- % inhibition of farnesyltransferase at 1 × 10^-6 M: 37%
Compound: CSCC[C@H](NC(=O)c1ccc(CNc2ccccc2Oc2ccccc2)cc1-c1ccccc1)C(=O)O [Example 645]

- % inhibition of farnesyltransferase at 1 × 10^-6 M: 99%
Compound: CCSC[C@H](CC1CCCCC1)NCc1ccc(C(=O)N[C@@H](CCSC)C(=O)O)c(-c2ccccc2C)c1 [Example 403]

Compound: CSCC[C@H](NC(=O)c1ccc(CCCc2ccc3ccccc3c2)cc1-c1ccccc1C)C(=O)O [Example 470, N-[4-(3-naphth-2-ylpropyl)-2-(2-methylphenyl)benzoyl]methionine lithium salt]
- inhibition at 1 µM: 95%

Compound: CSCC[C@H](NC(=O)c1ccc(COCCCC23CC4CC(CC(C4)C2)C3)cc1-c1ccccc1C)C(=O)[O-].[Li+] [Example 599]
- % inhibition of farnesyltransferase at 1 × 10^-8 M (1 × 10^-8 M (Table 4)): 86%

- % inhibition of farnesyltransferase at 1 × 10^-6 M: 96%
Compound: CSCC[C@H](NC(=O)c1ccc(CN(Cc2ccc(C(F)(F)F)cc2)c2ccccc2)cc1-c1ccccc1C)C(=O)O [Example 782]

Compound: CSCC[C@H](NC(=O)c1ccc(-c2ccccc2-c2ccccc2)cc1-c1ccccc1C)C(=O)O [Example 786, N-[4-(2-phenylphenyl)-2-(2-methylphenyl)benzoyl]methionine lithium salt]
- inhibition at 1 µM: 34%

- inhibition at 0.1 µM [1]: 86%
Compound: COCC1CCC(Cc2ccccc2)N1Cc1ccc(C(=O)N[C@@H](CCSC)C(=O)O)c(-c2ccccc2C)c1 (stereo partly drawn) [Example 1118, N-[4-(2-methoxymethyl-5-benzylpyrrolidin-1-ylmethyl)-2-(2-methylphenyl)benzoyl]methionine]

- % inhibition of farnesyltransferase at 1 × 10^-8 M (1 × 10^-8 M (Table 4)): 95%
Compound: CSCC[C@H](NC(=O)c1ccc(CO[C@@H](CC2CCCCC2)CN2CCOCC2)cc1-c1ccccc1C)C(=O)O [Example 885]

- inhibition at 0.1 µM (read-out: % inhibition of farnesyltransferase at 1 × 10^-7 M, 1 × 10^-7 M (Table 3)): 84%
Compound: CSCC[C@H](NC(=O)c1ccc(CN2CCCC(OCC3CCCCC3)C2)cc1-c1ccccc1C)C(=O)O (stereo partly drawn) [Example 990, N-[4-(3-cyclohexylmethoxypiperidin-1-ylmethyl)-2-(2-methylphenyl)benzoyl]methionine]

- % inhibition of farnesyltransferase at 1 × 10^-6 M: 50%
Compound: CSCCC(NC(=O)c1ccc(NC(=O)C2CCCNC2)cc1-c1ccccc1)C(=O)O (stereo not drawn) [Example 231]

Compound: CSCC[C@H](NC(=O)c1ccc(COC2(Cc3ccccc3)CCN(C(=O)OC(C)(C)C)CC2)cc1-c1ccccc1C)C(=O)[O-].[Li+] [Example 809]
- % inhibition of farnesyltransferase at 1 × 10^-6 M: 78%

- % inhibition of farnesyltransferase at 1 × 10^-6 M: 77%
Compound: CSCC[C@H](NC(=O)c1ccc(CN(CC(c2ccccc2)c2ccccc2)c2ccccc2)cc1-c1ccccc1C)C(=O)O [Example 509]

- inhibition at 1 µM: 53%
Compound: CSCC[C@H](NC(=O)c1ccc(/C=C/c2ccccc2)cc1-c1ccccc1C)C(=O)O [Example 791, N-[4-(2-phenylethen-1-yl)-2-(2-methylphenyl)benzoyl]methionine]

- % inhibition at 0.1 μM (*) (Table 6, * = 0.1 μM (footnote), title prints 0.1 mM): 87%
Compound: CCCCN(CCN1CCCCC1)Cc1ccc(C(=O)N[C@@H](CCSC)C(=O)O)c(-c2ccccc2C)c1 [Example 1196]

Compound: CSCC[C@H](NC(=O)c1ccc(COC(Cc2ccccc2)c2ccco2)cc1-c1ccccc1C)C(=O)[O-].[Li+] (stereo partly drawn) [Example 534]
- % inhibition of farnesyltransferase at 1 × 10^-7 M (1 × 10^-7 M (Table 3)): 84%

Compound: CSCC[C@H](NC(=O)c1ccc(COCc2ccc3ccccc3c2)cc1-c1ccccc1C)C(=O)[O-].[Li+] [Example 583]
- % inhibition of farnesyltransferase at 1 × 10^-6 M: 98%

- % inhibition of farnesyltransferase at 1 × 10^-6 M: 37%
Compound: CSCC[C@H](NC(=O)c1ccc(NC(=O)Cc2ccc(C)cc2)cc1-c1ccccc1C)C(=O)O [Example 541]

- % inhibition of farnesyltransferase at 1 × 10^-6 M: 59%
Compound: CSCC[C@H](NC(=O)c1ccc(CNc2ccccc2N2CCCCC2)cc1-c1ccccc1)C(=O)O [Example 673]

- % inhibition of farnesyltransferase at 1 × 10^-6 M: 95%
Compound: COc1ccc(CCOCc2ccc(C(=O)N[C@@H](CCSC)C(=O)O)c(-c3ccccc3C)c2)cc1 [Example 937]

- inhibition at 0.01 µM (read-out: % inhibition of farnesyltransferase at 1 × 10^-8 M, 1 × 10^-8 M (Table 4)): 85%
Compound: CSCC[C@H](NC(=O)c1ccc(CCc2ccc(Oc3ccc(Cl)cc3)cc2)cc1-c1ccccc1C)C(=O)O [Example 860, N-[4-(2-(4-(4-chlorophenoxy)phenyl)ethyl)-2-(2-methylphenyl)benzoyl]methionine]

Compound: CSCC[C@H](NC(=O)c1ccc(CC(CO)CCC2CCCCC2)cc1-c1ccccc1C)C(=O)O (stereo partly drawn) [Example 1299, N-[4-(2-(2-Cyclohexylethyl)-1-hydroxyprop-3-yl)-2-(2-methylphenyl)benzoyl]methionine Lithium Salt]
- inhibition at 0.01 µM [2]: 96%

- inhibition at 0.01 µM [2]: 85%
Compound: CSCC[C@H](NC(=O)c1ccc(CP(=O)(CCC2CCCCC2)CCC2CCCCC2)cc1-c1ccccc1C)C(=O)O [Example 1219, N-[4-(Di(2-cylohexylethyl)(oxophosphinyl)methyl)-2-(2-methylphenyl)benzoyl]methionine]

- inhibition at 1 µM: 72%
Compound: CSCC[C@H](NC(=O)c1ccc(CN(C(C)C)C2(Cc3ccccc3)CCCC2)cc1-c1ccccc1C)C(=O)O [Example 343]
